Test results as given in patent US8927596B2, “Antischistosomal agent” (National University Corporation Okayama University, priority 2008, dated 2015).

Assays:
[1] = test system: schistosomes (Schistosoma mansoni); assay: Number of schistosomes and number of eggs produced per adult female schistosome (Experimental Example 2); assay type: in vivo; conditions: infected BALB/c mice, oral, measured on Week 9
Method: 100 μl of the antischistosomal agent of the present invention were orally administered to mice (BALB/c mice, 5-week-old) infected with schistosomes (Schistosoma mansoni) in accordance with a drug dosage regimen of FIG. 4. As a control, 100 μl of olive oil was administered. On Week 9 after the infection, the mice were sacrificed with an overdose of anesthetic, and the number of schistosomes recovered and the number of eggs produced per adult female schistosome were measured. The number of schistosomes was measured in the same manner as in Experimental Example 1, and the number of eggs produced was also counted under a microscope.

[2] = test system: schistosomes (Schistosoma mansoni); assay: Macroscopic findings on liver lesions in schistosome-infected mice (Experimental Example 3); assay type: in vivo; conditions: infected BALB/c mice, viscera observed macroscopically
[3] = test system: schistosomes (Schistosoma mansoni); assay: Number of schistosomes in vivo (Experimental Example 1); conditions: infected BALB/c mice, oral, administered on Days 14 and 15 after the infection, counted on Week 6 after the infection
Method: 100 μl of the antischistosomal agent of the present invention were orally administered to mice (BALB/c mice, 5-week-old) infected with schistosomes (Schistosoma mansoni) in accordance with a drug dosage regimen of FIG. 2. As a control, 100 μl of olive oil was administered. On Week 6 after the infection, the mice were sacrificed with an overdose of anesthetic, and the number of schistosomes recovered was counted under a microscope.

immature schistosomes = conditions: as reported in the literature (Non Patent Literature 1); cited from earlier work
[4] = administration on each of Weeks 5 to 7 after the infection

Compound	number of eggs produced reduced ([1]; administration on Week 5 only after the infection) [%]	number of eggs produced per adult female schistosome reduced as compared to the olive oil administration group [1, 4] [%]	number of schistosomes as compared to the olive oil administration group [1, 4]	liver lesions due to eggs of schistosomes (macroscopic) ([2]; administered on Week 5 after the infection)	enlargement of spleen [2]	number of schistosomes reduced as compared to the olive oil administration group [3] [%]	effect on schistosomes at the immature stage (immature schistosomes)
C1CCCCCC2(CCCCC1)OOCCCOO2 [antischistosomal agent, 1,2,6,7-tetraoxaspiro[7.11]nonadecane]	87	98	not significantly reduced	few liver lesions	inhibited	86	
O=C(C1CCCCC1)N1CC(=O)N2CCc3ccccc3C2C1 (stereo not shown) [praziquantel]							not effective
